Measured values from paper PMC8744835, “Sterically Hindered Quaternary Phosphonium Salts (QPSs): Antimicrobial Activity and Hemolytic and Cytotoxic Properties” (International Journal of Molecular Sciences, 2021).

Key:
[1] = system: human erythrocytes; assay: Hemolytic activity; type: cell-based; conditions: red blood cells
Description: An important characteristic when assessing the biological activity of new chemical compounds is their cytotoxic effect on eukaryotic cells. The ability of an investigated compound to cause the destruction of human erythrocytes illustrates its toxic effect on the internal environment. The hemolysis assay is a simple screening test that can help in the study of cytotoxicity in more complex models. Cell lines obtained from various human organs and tissues that allow for adequate estimation of the effects of new potential drugs on cell metabolism can serve as experimental models.
The hemolytic activity of the QPSs was estimated by comparing the optical density of a solution containing the test compound with that of blood at 100% hemolysis. The experiments were carried out as previously described.

[2] = system: Chang liver cell line; assay: Cytotoxicity assay (Cytell Cell Imaging, DAPI/propidium iodide); type: cell-based, human; conditions: for IC50: Homo sapiens, Chang liver, read-out: IC50 (concentration that causes the death of 50% of the cells), Chang liver cells; for IC50 (concentration that causes the death of 50% of the cells): Chang liver cells
[3] = system: Staphylococcus aureus ATCC 6538P FDA 209P; assay: Antimicrobial activity, serial dilution technique in Mueller–Hinton Broth 2; type: cell-based; conditions: average of three ± SD, - means non-active; for MIC / MBC: Staphylococcus aureus, Sa; for MIC: read-out: Minimum Inhibitory Concentration (MIC), Sa; for MBC: read-out: Minimum Bactericidal and Fungicidal Concentration (MBC, MFC), Sa
Outline: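 Using a broth serial dilution method in Mueller–Hinton Broth 2, S. aureus ATCC 6538P FDA 209P (3.0 × 10^5 cfu/mL) was exposed to compounds at 37 °C and observed daily over 5 days. MIC was the lowest concentration preventing growth; bacteriostatic absence of growth was also noted, with three replicate experiments.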

[4] = system: Bacillus cereus ATCC 10702 NCTC 8035; assay: as above; type: cell-based; conditions: average of three ± SD, - means non-active; for MIC: read-out: Minimum Inhibitory Concentration (MIC), Bc
Outline: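 Compounds were serially diluted in Mueller–Hinton Broth 2 and inoculated with the Gram-positive strain Bacillus cereus ATCC 10702 NCTC 8035 at 3.0 × 10^5 cfu/mL, then incubated at 37 °C. Observations were taken every 24 h over 5 days in three repeat experiments. The MIC was the lowest concentration that stopped growth, with bacteriostatic absence of growth also noted.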

[5] = system: Enterococcus faecalis ATCC 2921; assay: as above; type: cell-based; conditions: average of three ± SD, - means non-active; for MIC / MBC: Enterococcus faecalis, ATCC2921, Ef; for MIC: read-out: Minimum Inhibitory Concentration (MIC), Ef; for MBC: read-out: Minimum Bactericidal and Fungicidal Concentration (MBC, MFC), Ef
Outline: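 Antibacterial activity against Enterococcus faecalis ATCC 2921 was assessed by serial dilution in Mueller–Hinton Broth 2 with a bacterial load of 3.0 × 10^5 cfu/mL. Cultures were incubated at 37 °C, with growth recorded every 24 h for 5 days, and the experiment was performed three times.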

[6] = system: Escherichia coli ATCC 25922; assay: as above; type: cell-based; conditions: average of three ± SD, - means non-active; for MIC: Escherichia coli, ATCC25922, Ec, read-out: Minimum Inhibitory Concentration (MIC), Ec
Outline: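 Growth inhibition is scored in Mueller–Hinton Broth 2 dilution series seeded with 3.0 × 10^5 cfu/mL and held at 37 °C for up to 5 days. Values reported are MICs, the lowest concentration without growth.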

[7] = system: methicillin-resistant S. aureus MRSA-2; assay: as above; type: cell-based, Staphylococcus aureus; conditions: - means non-active
Outline: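 Antimicrobial activity against methicillin-susceptible Staphylococcus aureus MRSA-2, a beta-lactam-resistant clinical isolate from a sinusitis patient at the Republican Clinical Hospital (Kazan), was assessed by serial dilution in Mueller–Hinton Broth 2. The inoculum was 3.0 × 10^5 cfu/mL. Cultures were incubated at 37 °C and read every 24 h for 5 days, in three repeat experiments.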

[8] = system: Escherichia coli ATCC 25922; assay: as above; type: cell-based; conditions: average of three ± SD, - means non-active; for MBC: Escherichia coli, ATCC25922, Ec, read-out: Minimum Bactericidal and Fungicidal Concentration (MBC, MFC), Ec
[9] = system: methicillin-resistant S. aureus MRSA-1; assay: as above; type: cell-based, Staphylococcus aureus; conditions: - means non-active
Outline: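 Antimicrobial activity against methicillin-susceptible Staphylococcus aureus MRSA-1, a hospital isolate from a chronic tonsillitis patient that is resistant to fluoroquinolones and beta-lactams, was determined by serial dilution in Mueller–Hinton Broth 2. The bacterial load was 3.0 × 10^5 cfu/mL, incubation was at 37 °C, and growth was recorded every 24 h for 5 days.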

[10] = system: Pseudomonas aeruginosa ATCC 9027; assay: as above; type: cell-based; conditions: average of three ± SD, - means non-active
[11] = system: Candida albicans ATCC 10231; assay: Fungicidal activity, serial dilution technique; type: cell-based; conditions: average of three ± SD, - means non-active
Outline: (§1)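 Growth inhibition was scored every 24 h across 5 days at 37 °C in a broth serial dilution series (Mueller–Hinton Broth 2, 3.0 × 10^5 cfu/mL load). Triplicate experiments; minimum inhibitory concentration recorded.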

[12] = system: Trichophyton mentagrophytes var. gypseum 1773; assay: Fungicidal activity, serial dilution technique; type: cell-based; conditions: Tm; average of three ± SD; - means non-active
Outline: as §1

[13] = MRSA-1 (resistant to fluoroquinolones and beta-lactams)
[14] = MRSA-2 (resistant to beta-lactams)

## CC(C)(C)[P+](C)(C(C)(C)C)C(C)(C)C [Compound 1a]
[1]
  HC50 (concentration that causes 50% hemolysis of erythrocytes): > 125 µg/mL
[2]
  IC50: > 100 µg/mL

## CC[P+](C(C)(C)C)(C(C)(C)C)C(C)(C)C [Compound 2a]
[1]
  HC50 (concentration that causes 50% hemolysis of erythrocytes): > 125 µg/mL
[2]
  IC50: > 100 µg/mL

## CCC[P+](C(C)(C)C)(C(C)(C)C)C(C)(C)C [Compound 3a]
[1]
  HC50 (concentration that causes 50% hemolysis of erythrocytes): > 125 µg/mL
[2]
  IC50: > 100 µg/mL

## CCCC[P+](C(C)(C)C)(C(C)(C)C)C(C)(C)C [Compound 4a]
[1]
  HC50 (concentration that causes 50% hemolysis of erythrocytes): > 125 µg/mL
[2]
  IC50: > 100 µg/mL

## CCCCC[P+](C(C)(C)C)(C(C)(C)C)C(C)(C)C [Compound 5b]
[1]
  HC50 (concentration that causes 50% hemolysis of erythrocytes): > 125 µg/mL
[2]
  IC50: > 100 µg/mL

## CCCCCC[P+](C(C)(C)C)(C(C)(C)C)C(C)(C)C [Compound 6a]
[3]
  MIC: 125 ± 11 µg/mL
[1]
  HC50 (concentration that causes 50% hemolysis of erythrocytes): > 125 µg/mL
[2]
  IC50: > 100 µg/mL

## CCCCCC[P+](C(C)(C)C)(C(C)(C)C)C(C)(C)C [Compound 6b]
[3]
  Minimum Inhibitory Concentration (MIC), Sa: 250 ± 19 µg/mL
[1]
  HC50 (concentration that causes 50% hemolysis of erythrocytes): > 125 µg/mL
[2]
  IC50 (concentration that causes the death of 50% of the cells): > 100 µg/mL

## CCCCCCC[P+](C(C)(C)C)(C(C)(C)C)C(C)(C)C [Compound 7a]
[4]; Bacillus cereus, Bc
  MIC: 125 ± 10 µg/mL
[5]
  MIC: 125 µg/mL
[3]
  MIC: 62.5 ± 5.5 µg/mL
[1]
  HC50 (concentration that causes 50% hemolysis of erythrocytes): > 125 µg/mL
[2]
  IC50: > 100 µg/mL

## CCCCCCC[P+](C(C)(C)C)(C(C)(C)C)C(C)(C)C [Compound 7b]
[3]
  MBC: 62.5 µg/mL
[1]
  HC50 (concentration that causes 50% hemolysis of erythrocytes): > 125 µg/mL
[2]
  IC50 (concentration that causes the death of 50% of the cells): > 100 µg/mL

## CCCCCCCC[P+](C(C)(C)C)(C(C)(C)C)C(C)(C)C [Compound 8a]
[4]; Bacillus cereus, Bc
  MIC: 31.3 µg/mL
[5]
  MIC: 62.5 µg/mL
[6]
  MIC: 125 µg/mL
[3]
  MBC: 62.5 µg/mL
[7]; Staphylococcus aureus, MRSA, MRSA-2 (resistant to beta-lactams), read-out: Minimum Inhibitory Concentration (MIC), MRSA-2
  MIC: 31.3 µg/mL
[1]
  HC50 (concentration that causes 50% hemolysis of erythrocytes): > 125 µg/mL
[2]
  IC50: > 100 µg/mL
[8]
  MBC: 125 µg/mL

## CCCCCCCC[P+](C(C)(C)C)(C(C)(C)C)C(C)(C)C [Compound 8b]
[5]
  MBC: 125 µg/mL
[3]
  Minimum Bactericidal and Fungicidal Concentration (MBC, MFC), Sa: 31.3 µg/mL
  Minimum Inhibitory Concentration (MIC), Sa: 31.3 µg/mL
[9]; [13]
  Minimum Inhibitory Concentration (MIC), MRSA-1: 31.3 µg/mL
[1]
  HC50 (concentration that causes 50% hemolysis of erythrocytes): > 125 µg/mL
[2]
  IC50 (concentration that causes the death of 50% of the cells): > 100 µg/mL

## CCCCCCCCC[P+](C(C)(C)C)(C(C)(C)C)C(C)(C)C [Compound 9b]
[4]
  Minimum Inhibitory Concentration (MIC), Bc: 31.3 µg/mL
[5]
  Minimum Bactericidal and Fungicidal Concentration (MBC, MFC), Ef: 125 µg/mL
  Minimum Inhibitory Concentration (MIC), Ef: 31.3 µg/mL
[6]
  Minimum Inhibitory Concentration (MIC), Ec: 250 µg/mL
[3]
  Minimum Bactericidal and Fungicidal Concentration (MBC, MFC), Sa: 15.6 µg/mL
[7]; [14]
  Minimum Inhibitory Concentration (MIC), MRSA-2: 31.3 µg/mL
[1]
  HC50 (concentration that causes 50% hemolysis of erythrocytes): > 125 µg/mL
[2]
  IC50 (concentration that causes the death of 50% of the cells): > 100 µg/mL
[8]
  Minimum Bactericidal and Fungicidal Concentration (MBC, MFC), Ec: 250 µg/mL

## CCCCCCCCCCCCCCCCCCCC[P+](C(C)(C)C)(C(C)(C)C)C(C)(C)C [Compound 20a]
[4]; Bacillus cereus, Bc, read-out: Minimum Bactericidal and Fungicidal Concentration (MBC, MFC), Bc
  MBC: 31.3 ± 2.6 µg/mL
[4]
  Minimum Inhibitory Concentration (MIC), Bc: 15.6 ± 1.3 µg/mL
[5]
  MBC: 7.8 ± 0.6 µg/mL
  MIC: 3.9 ± 0.2 µg/mL
[6]
  MIC: 62.5 ± 5.5 µg/mL
[10]
  Minimum Inhibitory Concentration (MIC), Pa: 31.3 ± 2.4 µg/mL
[10]; Pseudomonas aeruginosa, ATCC9027, Pa, read-out: Minimum Bactericidal and Fungicidal Concentration (MBC, MFC), Pa
  MBC: 125 ± 11 µg/mL
[3]
  MBC: 3.9 ± 0.2 µg/mL
  MIC: 3.9 ± 0.2 µg/mL
[9]
  Minimum Bactericidal and Fungicidal Concentration (MBC, MFC), MRSA-1: 31.3 ± 2.7 µg/mL
[9]; Staphylococcus aureus, MRSA, MRSA-1 (resistant to fluoroquinolones and beta-lactams), read-out: Minimum Inhibitory Concentration (MIC), MRSA-1
  MIC: 7.8 ± 0.6 µg/mL
[7]; [14]
  Minimum Inhibitory Concentration (MIC), MRSA-2: 1.9 ± 0.1 µg/mL
[7]; Staphylococcus aureus, MRSA, MRSA-2, read-out: Minimum Bactericidal and Fungicidal Concentration (MBC, MFC), MRSA-2
  MBC: 15.6 ± 1.2 µg/mL
[11]; Ca
  Minimum Inhibitory Concentration (MIC), Ca: 31.3 ± 2.5 µg/mL
[11]; Candida albicans, ATCC10231, Ca, read-out: Minimum Bactericidal and Fungicidal Concentration (MBC, MFC), Ca
  MBC: 62.5 ± 5.7 µg/mL
[12]
  Minimum Bactericidal and Fungicidal Concentration (MBC, MFC), Tm: 31.3 ± 2.5 µg/mL
  Minimum Inhibitory Concentration (MIC), Tm: 31.3 ± 2.3 µg/mL
[8]
  MBC: 62.5 ± 5.5 µg/mL

## CCCCCCCCCCCCCCCCCCCC[P+](C(C)(C)C)(C(C)(C)C)C(C)(C)C [Compound 20b]
[4]
  Minimum Inhibitory Concentration (MIC), Bc: 62.5 ± 5.5 µg/mL
[5]
  Minimum Bactericidal and Fungicidal Concentration (MBC, MFC), Ef: 15.6 ± 1.3 µg/mL
  Minimum Inhibitory Concentration (MIC), Ef: 7.8 ± 0.6 µg/mL
[6]
  Minimum Inhibitory Concentration (MIC), Ec: 62.5 ± 5.7 µg/mL
[10]
  Minimum Inhibitory Concentration (MIC), Pa: 125 ± 11 µg/mL
[3]
  Minimum Bactericidal and Fungicidal Concentration (MBC, MFC), Sa: 3.9 ± 0.3 µg/mL
  Minimum Inhibitory Concentration (MIC), Sa: 3.9 ± 0.2 µg/mL
[9]; [13]
  Minimum Inhibitory Concentration (MIC), MRSA-1: 15.6 ± 1.3 µg/mL
[9]
  Minimum Bactericidal and Fungicidal Concentration (MBC, MFC), MRSA-1: 15.6 ± 1.2 µg/mL
[7]; [14]
  Minimum Inhibitory Concentration (MIC), MRSA-2: 7.8 ± 0.6 µg/mL
[7]; MRSA-2
  Minimum Bactericidal and Fungicidal Concentration (MBC, MFC), MRSA-2: 7.8 ± 0.7 µg/mL
[11]; Ca
  Minimum Bactericidal and Fungicidal Concentration (MBC, MFC), Ca: 31.3 ± 2.1 µg/mL
  Minimum Inhibitory Concentration (MIC), Ca: 15.6 ± 1.3 µg/mL
[12]
  Minimum Bactericidal and Fungicidal Concentration (MBC, MFC), Tm: 250 ± 18 µg/mL
  Minimum Inhibitory Concentration (MIC), Tm: 250 ± 18 µg/mL
[8]
  Minimum Bactericidal and Fungicidal Concentration (MBC, MFC), Ec: 62.5 ± 5.5 µg/mL
